In patent US20140107109A1, “AMINO-DIHYDROTHIAZINE AND AMINO-DIOXIDO DIHYDROTHIAZINE COMPOUNDS AS BETA-SECRETASE ANTAGONISTS AND METHODS OF USE” (Amgen Inc., priority 2012, published 2014) one finds IC50 data, which are given here for 20 molecules.

Each structure is given as a SMILES string.

For assay [1], the target named is Beta Secretase enzyme (BACE1) (Homo sapiens, UniProt P56817). Put plainly: In vitro enzymatic BACE FRET assay. Particulars: average IC50, enzyme assay; read-out: BACE1 FRET assay IC50. The format is biochemical. In outline:
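BACE1 cleavage of a 50 nM fluorophore/quencher peptide FRET substrate ran for one hour in 0.05 M acetate pH 4.2, 10% DMSO, 100 uM genapol. Tris buffer raised pH to neutrality to stop the reaction before fluorescence was read (excitation 488 nm, […]).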

In assay [2] the test system is Aβ40 in conditioned medium of cells stably expressing Amyloid Precursor Protein (APP). The experiment in a line: In vitro BACE cell-based assay (HEK cell assay), Aβ40 sandwich ELISA. As to conditions: Homo sapiens, HEK293; average IC50, HEK cell assay. In outline: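 APP-stably expressing cells (40K/well, grown 24 h in DMEM/10% FBS) were treated 24 h with compounds in 10-point dose response starting at 100 μM or 10 μM, 0.1% DMSO final. Secreted Aβ40 was measured by sandwich ELISA (pAb40 capture, biotinylated 6E10 detection, europium time-resolved fluorescence); IC50 from percent inhibition.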
For orientation: An ELISA detects its analyte on a solid surface through an enzyme-linked reagent.

The target in a further assay is T1, Cathepsin D (Cat D) (Homo sapiens, UniProt P07339).
T1 construct: Recombinant Cat D was expressed in CHO cells; made in house; host or cells: CHO cells
T1 sequence (P07339 65-412, species assumed): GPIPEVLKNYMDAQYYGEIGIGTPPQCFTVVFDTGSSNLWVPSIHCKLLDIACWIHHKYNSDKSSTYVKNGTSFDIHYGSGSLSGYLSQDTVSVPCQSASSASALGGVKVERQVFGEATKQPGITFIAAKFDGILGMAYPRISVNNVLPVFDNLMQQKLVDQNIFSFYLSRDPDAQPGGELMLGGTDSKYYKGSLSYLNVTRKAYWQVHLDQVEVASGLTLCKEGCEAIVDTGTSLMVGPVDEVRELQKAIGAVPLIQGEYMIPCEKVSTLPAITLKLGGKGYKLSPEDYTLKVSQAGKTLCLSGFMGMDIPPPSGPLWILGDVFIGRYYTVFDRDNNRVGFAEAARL
The experiment in a line: In vitro enzymatic Cathepsin D (Cat D) FRET assay. Particulars: read-out: CatD IC50. It is filed as biochemical. An outline of the steps: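 Recombinant Cat D expressed in CHO cells, used at 9 nM and pre-incubated one hour with serially diluted inhibitor in DMSO. Peptide substrate carries a fluorophore and quencher flanking the cleavage site; reaction stopped with Tris buffer raising pH to neutrality, then fluorescence read.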

Beta Secretase enzyme (BACE1), sequence (P56817 46-501): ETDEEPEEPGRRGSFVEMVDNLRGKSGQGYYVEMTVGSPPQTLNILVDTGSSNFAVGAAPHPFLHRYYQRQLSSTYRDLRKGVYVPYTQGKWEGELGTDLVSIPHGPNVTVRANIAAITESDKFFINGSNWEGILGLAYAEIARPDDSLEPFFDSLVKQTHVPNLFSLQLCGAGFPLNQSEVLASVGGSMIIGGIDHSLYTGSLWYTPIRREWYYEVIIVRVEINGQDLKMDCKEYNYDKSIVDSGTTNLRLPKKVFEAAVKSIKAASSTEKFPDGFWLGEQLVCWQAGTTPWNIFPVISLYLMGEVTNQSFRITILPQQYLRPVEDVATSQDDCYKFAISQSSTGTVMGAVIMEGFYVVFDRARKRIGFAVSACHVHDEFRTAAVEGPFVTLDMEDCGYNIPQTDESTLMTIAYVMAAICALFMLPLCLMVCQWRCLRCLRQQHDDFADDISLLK

The term IC50 denotes the concentration that gives 50% inhibition. For `CC1(C)C(N)=N[C@](C)(c2cc(NC(=O)c3cnc(OC(F)F)cn3)ccc2F)CS1(=O)=O` [Example 344, N-(3-((3R)-5-amino-3,6,6-trimethyl-1,1-dioxido-3,6-dihydro-2H-1,4-thiazin-3-yl)-4-fluorophenyl)-5-(difluoromethoxy)-2-pyrazinecarboxamide], the values for the IC50 (in assay [1]; in assay [2]; on Cathepsin D (Cat D)) were 0.53 nM, 0.4 nM and 388 µM, respectively.
Turning to `COc1cc(Cl)ccc1C(=O)Nc1ccc(F)c([C@]2(C)CS(=O)(=O)C(C)(C)C(N)=N2)c1` [Example 345, N-(3-((3R)-5-amino-3,6,6-trimethyl-1,1-dioxido-3,6-dihydro-2H-1,4-thiazin-3-yl)-4-fluorophenyl)-4-chloro-2-methoxybenzamide], the IC50 turned out to be 31.3 nM in assay [1], 71.3 nM in assay [2] and 75.6 µM on Cathepsin D (Cat D).
The like results for `CC1(C)C(N)=N[C@](C)(c2cc(NC(=O)c3cnc(OCC(F)(F)F)cn3)ccc2F)CS1(=O)=O` [Example 346, N-(3-((3R)-5-amino-3,6,6-trimethyl-1,1-dioxido-3,6-dihydro-2H-1,4-thiazin-3-yl)-4-fluorophenyl)-5-(2,2,2-trifluoroethoxy)-2-pyrazinecarboxamide] were, in that order, 0.45 nM, 1.4 nM and above 400 µM.
The like results for `Cc1cc(Cl)cnc1C(=O)Nc1cnc(F)c([C@]2(C)CS(=O)(=O)C(C)(C)C(N)=N2)c1` [Example 347, N-(5-((3R)-5-amino-3,6,6-trimethyl-1,1-dioxido-3,6-dihydro-2H-1,4-thiazin-3-yl)-6-fluoro-3-pyridinyl)-5-chloro-3-methyl-2-pyridinecarboxamide] were, in that order, 1.1 nM, 1.8 nM and 71 µM.
The matching figures for `CC1(C)C(N)=N[C@](C)(c2cc(NC(=O)c3ncc(C(F)F)cc3Cl)cnc2F)CS1(=O)=O` [Example 348, N-(5-((3R)-5-amino-3,6,6-trimethyl-1,1-dioxido-3,6-dihydro-2H-1,4-thiazin-3-yl)-6-fluoro-3-pyridinyl)-3-chloro-5-(difluoromethyl)-2-pyridinecarboxamide]: 5.89 nM, 9.92 nM and 490 µM.
As to `CC#CCOc1cnc(C(=O)Nc2cnc(F)c([C@]3(C)CS(=O)(=O)C4(CCC4)C(N)=N3)c2)c(C)c1` [Example 349, N-(5-((7R)-9-amino-7-methyl-5,5-dioxido-5-thia-8-azaspiro[3.5]non-8-en-7-yl)-6-fluoro-3-pyridinyl)-5-(2-butyn-1-yloxy)-3-methyl-2-pyridinecarboxamide], the IC50 in assay [1] is 0.78 nM; in assay [2], 1.3 nM; at Cathepsin D (Cat D), 196 µM.
The like results for `Cc1cc(OCC(F)(F)F)cnc1C(=O)Nc1cnc(F)c([C@]2(C)CS(=O)(=O)C3(CCC3)C(N)=N2)c1` [Example 350, N-(5-((7R)-9-amino-7-methyl-5,5-dioxido-5-thia-8-azaspiro[3.5]non-8-en-7-yl)-6-fluoro-3-pyridinyl)-3-methyl-5-(2,2,2-trifluoroethoxy)-2-pyridinecarboxamide] were, in that order, 6.06 nM, 34.5 nM and above 400 µM.
As to `COCc1cc(Cl)cnc1C(=O)Nc1ccc(F)c([C@]2(C)CS(=O)(=O)C(C)(C)C(N)=N2)c1` [Example 351, N-(3-((3R)-5-amino-3,6,6-trimethyl-1,1-dioxido-3,6-dihydro-2H-1,4-thiazin-3-yl)-4-fluorophenyl)-5-chloro-3-(methoxymethyl)-2-pyridinecarboxamide], the results for the IC50 (in assay [1]; in assay [2]; at Cathepsin D (Cat D)) were 0.52 nM, 2.7 nM and above 14.8 µM, respectively.
The matching figures for `CC1(C)C(N)=N[C@](C)(c2cc(NC(=O)c3ncc(Cl)cc3Br)ccc2F)CS1(=O)=O` [Example 352, N-(3-((3R)-5-amino-3,6,6-trimethyl-1,1-dioxido-3,6-dihydro-2H-1,4-thiazin-3-yl)-4-fluorophenyl)-3-bromo-5-chloro-2-pyridinecarboxamide]: 0.8 nM, 0.9 nM and 410 µM.
The like results for `Cc1cc(Cl)ccc1C(=O)Nc1ccc(F)c([C@]2(C)CS(=O)(=O)C(C)(C)C(N)=N2)c1` [Example 353, N-(3-((3R)-5-amino-3,6,6-trimethyl-1,1-dioxido-3,6-dihydro-2H-1,4-thiazin-3-yl)-4-fluorophenyl)-4-chloro-2-methylbenzamide] were, in that order, 6.52 nM, 16.6 nM and 708 µM.
The matching figures for `COc1ccc(C(=O)Nc2ccc(F)c([C@]3(C)CS(=O)(=O)C(C)(C)C(N)=N3)c2)c(F)c1` [Example 354, N-(3-((3R)-5-amino-3,6,6-trimethyl-1,1-dioxido-3,6-dihydro-2H-1,4-thiazin-3-yl)-4-fluorophenyl)-2-fluoro-4-methoxybenzamide]: 42.4 nM, 18.7 nM and 1330 µM.
In the case of `Cc1cc(C#N)cnc1C(=O)Nc1ccc(F)c([C@]2(C)CS(=O)(=O)C(C)(C)C(N)=N2)c1` [Example 355, N-(3-((3R)-5-amino-3,6,6-trimethyl-1,1-dioxido-3,6-dihydro-2H-1,4-thiazin-3-yl)-4-fluorophenyl)-5-cyano-3-methyl-2-pyridinecarboxamide], the IC50 in assay [1] came to 0.3 nM; in assay [2], 0.5 nM; at Cathepsin D (Cat D) it was 283 µM.
The matching figures for `CC1(C)C(N)=N[C@](C)(c2cc(NC(=O)c3ncc(C#N)cc3Cl)ccc2F)CS1(=O)=O` [Example 356, N-(3-((3R)-5-amino-3,6,6-trimethyl-1,1-dioxido-3,6-dihydro-2H-1,4-thiazin-3-yl)-4-fluorophenyl)-3-chloro-5-cyano-2-pyridinecarboxamide]: 0.35 nM, 1.2 nM and 710 µM.
The matching figures for `COc1cnc(C(=O)Nc2ccc(F)c([C@]3(C)CS(=O)(=O)C(C)(C)C(N)=N3)c2)c(C)c1` [Example 357, N-(3-((3R)-5-amino-3,6,6-trimethyl-1,1-dioxido-3,6-dihydro-2H-1,4-thiazin-3-yl)-4-fluorophenyl)-5-methoxy-3-methyl-2-pyridinecarboxamide]: 2.83 nM, 2.5 nM and 228 µM.
Take `Cc1cc(OC(F)F)cnc1C(=O)Nc1cnc(F)c([C@]2(C)CS(=O)(=O)C3(CCC3)C(N)=N2)c1` [Example 358, N-(5-((7R)-9-amino-7-methyl-5,5-dioxido-5-thia-8-azaspiro[3.5]non-8-en-7-yl)-6-fluoro-3-pyridinyl)-5-(difluoromethoxy)-3-methyl-2-pyridinecarboxamide]: the IC50 in assay [1] is 6.42 nM; in assay [2] it was 9.5 nM; at Cathepsin D (Cat D), 139 µM.
The like results for `Cc1cc(Cl)cnc1C(=O)Nc1cnc(F)c([C@]2(C)CS(=O)(=O)C3(CCC3)C(N)=N2)c1` [Example 359, N-(5-((7R)-9-amino-7-methyl-5,5-dioxido-5-thia-8-azaspiro[3.5]non-8-en-7-yl)-6-fluoro-3-pyridinyl)-5-chloro-3-methyl-2-pyridinecarboxamide] were, in that order, 2.2 nM, 5.21 nM and 105 µM.
The matching figures for `Cc1cnc(C(=O)Nc2ccc(F)c([C@]3(CF)CS(=O)(=O)C(C)(C)C(N)=N3)c2)c(C)c1` [Example 360, N-(3-((3S)-5-amino-3-(fluoromethyl)-6,6-dimethyl-1,1-dioxido-3,6-dihydro-2H-1,4-thiazin-3-yl)-4-fluorophenyl)-3,5-dimethyl-2-pyridinecarboxamide]: 2.99 nM, 24.5 nM and 636 µM.
The like results for `CC1(C)C(N)=N[C@](CF)(c2cc(NC(=O)c3ccc(C(F)F)cn3)ccc2F)CS1(=O)=O` [Example 361, N-(3-((3S)-5-amino-3-(fluoromethyl)-6,6-dimethyl-1,1-dioxido-3,6-dihydro-2H-1,4-thiazin-3-yl)-4-fluorophenyl)-5-(difluoromethyl)-2-pyridinecarboxamide] were, in that order, 0.8 nM, 19.3 nM and 437 µM.
In the case of `CC1(C)C(N)=N[C@](CF)(c2cc(NC(=O)c3ccc(OC(F)F)cn3)ccc2F)CS1(=O)=O` [Example 362, N-(3-((3S)-5-amino-3-(fluoromethyl)-6,6-dimethyl-1,1-dioxido-3,6-dihydro-2H-1,4-thiazin-3-yl)-4-fluorophenyl)-5-(difluoromethoxy)-2-pyridinecarboxamide], the IC50 in assay [1] was 0.3 nM; in assay [2] it was 3.5 nM; at Cathepsin D (Cat D), 303 µM.
The like results for `CC1(C)C(N)=N[C@](CF)(c2cc(NC(=O)c3ccc(F)cn3)ccc2F)CS1(=O)=O` [Example 363, N-(3-((3S)-5-amino-3-(fluoromethyl)-6,6-dimethyl-1,1-dioxido-3,6-dihydro-2H-1,4-thiazin-3-yl)-4-fluorophenyl)-5-fluoro-2-pyridinecarboxamide] were, in that order, 1.7 nM, 45.6 nM and above 400 µM.
